Laboratory results taken from PMC10347550, “Cyclic Ruthenium-Peptide Conjugates as Integrin-Targeting Phototherapeutic Prodrugs for the Treatment of Brain Tumors” (Journal of the American Chemical Society, 2023).

Legend:
subcutaneous U87MG tumor = assay: In vivo tumor inhibition study; parameters: species or system mice; conditions: for TUNEL staining of tumor slices: day 7, combined with 520 nm laser irradiation; for effect of light irradiation on tumor growth, light group compared to dark group: single i.v. dose day 0 ([1]Cl2 7.7 mg/kg, [2]Cl2 5 mg/kg), 520 nm laser 60 J/cm^2 at DLI 12 h, tumor volume over 15 days
Description: (§1) All animal studies were approved by the Institutional Animal Care and Use Committee of the US National Institutes of Health and were performed according to the relevant guidelines (8th edition, 2011). Female BALB/c nude mice (6 weeks old) were purchased from Shanghai SLAC Laboratory Animal Co. LTD (Shanghai, China). Tumor-bearing mice were obtained by subcutaneously injecting U87MG tumor cells (2 × 10^6 cells per mouse, dispersed in 100 μL of FBS) into the right hind limb and waiting for 15 days until the tumor volume reached 50–100 mm^3.
The mice bearing U87MG solid tumors were first randomly divided into 6 groups (N = 5): PBS, light, [1]Cl2, [2]Cl2, [1]Cl2 + light, and [2]Cl2 + light. The injectable solution of [1]Cl2 or [2]Cl2 was obtained by diluting the stock solution of the compound in DMSO (10 mg/mL) 10 times by RPMI-1640 medium containing 10% FBS, 100 units/mL penicillin, and 100 μg/mL streptomycin. The injection doses of [1]Cl2 and [2]Cl2 were set as 7.7, 5 mg/kg, respectively (injection volume = 100 μL of the same molar weight of Ru in the last four groups). In groups 2, 5, and 6, laser irradiation (520 nm, 100 mW/cm^2, 5 min) was carried out twice at 12 h post-injection, with a 5 min interval. Accordingly, the total laser dose for each illumination was 100 mW/cm^2, 10 min, and 60 J/cm^2. Treatments in all groups were carried out only once on day 0. Digital photos of tumor-bearing mice, the tumor size (length and width, measured with a caliper), and mouse body weight in all groups were recorded every third day. The tumor volume was calculated according to the standard formula: 0.5 × length × width^2. Both the average tumor volume and body weight were followed for 15 days. On day 7, one mouse from each group was sacrificed and then the tumor tissue was dissected and fixed with 10% paraformaldehyde. The tumor cell damage and apoptosis and necrosis conditions were evaluated by H&E or TUNEL stained protocols. On day 15 (the end of the tumor treatment period), all nude mice were humanly sacrificed, and the main organs (heart, liver, spleen, kidney, and lung) and tumors were resected. Digital photographs of tumors in each group were immediately obtained. All normal tissues were fixed with 10% paraformaldehyde and further analyzed in accordance with the H&E staining protocol, to estimate their off-target side effect after various treatments.

[1] = Nanoaggregation in Opti-MEM by DLS and TEM; type: physicochemical; conditions: 50 μM in Opti-MEM with 2.5% FCS, dark, 24 h (Figure S20)
Description: DLS was used to determine the distribution of particles in complex solutions (50 μM) in Opti-MEM (Gibco complete medium 11058-021, supplemented with 0.2% v/v penicillin/streptomycin (P/S), and 1% v/v glutamine) with or without 2.5% fetal calf serum (FCS) proteins via a ZEN1600 Zetasizer Nano instrument (Malvern Instruments Limited) operated with a 633 nm laser.
The TEM experiments were carried out with a TEM JEOL 1010:100 kV transmission electron microscope using a Formvar/carbon-coated copper grid (Polysciences Inc.). For the preparation of samples, a 1 mM stock aqua solution was diluted to 50 μM by Opti-MEM, after which, each drop (15 μL) of the complex solution was deposited on a parafilm (Bemis, HS234526C). The grids (Electron Microscopy Sciences, 71137) were placed on top of the drops for 5 min and then the excess liquid on the grid was removed with filter paper and air dried for 2 h for the TEM measurement. The TEM measurements were carried out under vacuum conditions.

[2] = Biodistribution of Ru by ICP-OES; type: in vivo, mice; conditions: for Ru content, Heart / Ru content, Kidney / Ru content, Liver / Ru content, Lung / Ru content, Spleen / Ru content, Tumor: U87MG tumor-bearing nude mice, ICP-OES, n = 3, ± SD
Description: as §1
The Blab/c nude mice bearing U87MG tumors were randomly assigned to two groups (N = 15) and received an intravenous injection of [1]Cl2 (7.7 mg/kg) or [2]Cl2 (5 mg/kg) at the same molar dose. Then, the mice were sacrificed at 2, 6, 12, 18, and 24 h post-injection (each time point contained 3 mice). The main organs (heart, liver, spleen, kidney, lung) and tumor tissue were dissected. Then, around 1 g of organs and tumors was lysed in a 7 mL mixture solution containing 5 mL of 65% HNO3 and 2 mL of 30% (w/w) H2O2 at 100 °C. After 12 h, all solutions had evaporated, and 5 mL of aqueous solution containing 2% HNO3 was added. The Ru content in all samples was measured by ICP-OES (JY-Horiba ICP-OES Ultima 2).

U87MG cells = assay: 2D cytotoxicity assay, 24 h DLI & no wash, SRB endpoint; type: cell-based, human; conditions: normoxic 2D monolayer U87MG; for PI: mixture of Δ and Λ isomers (Figure S34a); for EC50: mixture of Δ and Λ isomers, green light 520 nm, 13.1 J/cm^2 (Figure S34a), read-out: EC50,light
Description: For each complex, two identical plates were prepared, one of which was irradiated with light, while the other was used as a dark control. […] Finally, at t = 96 h, 100 μL of cold trichloroacetic acid (10% w/v) was added to each well to fix the cells, and all plates were then transferred to a 4 °C refrigerator for 48 h before performing an SRB cell quantification endpoint assay.[72] Trichloroacetic acid was first removed and each plate was gently washed with demi water 3–5 times. Then, each well was dried in the air, and 100 μL of 0.6% SRB solution (0.6% w/v in 1% v/v acetic acid/H2O solution) was added into each well where it was allowed to stain for 30 min. Then, the plates were washed 3–5 times using an acetic acid solution (1% v/v). Once the plate was washed it was allowed to dry overnight. Then, 200 μL of 10 mM Tris base buffer was added to each well and the plate was allowed to sit on an orbital shaker for 0.5–16 h. After mixing, the absorbance of each well was determined by an M1000 Tecan Reader, reading at 510 nm. All experiments were conducted in independent biological triplicate. The obtained data were analyzed with Graphpad Prism 5 using the dose–response two-parameter Hill slope equation (eq 1) to obtain the half-maximal effective concentrations EC50 (defined as the concentration of drug that kills 50% of cells, compared to the untreated control). [drawing 1] 1

[3] = 2 h after i.v. injection of [1]Cl2 7.7 mg/kg or [2]Cl2 5 mg/kg
[4] = 6 h after i.v. injection of [1]Cl2 7.7 mg/kg or [2]Cl2 5 mg/kg
[5] = 12 h after i.v. injection of [1]Cl2 7.7 mg/kg or [2]Cl2 5 mg/kg
[6] = 18 h after i.v. injection of [1]Cl2 7.7 mg/kg or [2]Cl2 5 mg/kg
[7] = 24 h after i.v. injection of [1]Cl2 7.7 mg/kg or [2]Cl2 5 mg/kg

Compound | TUNEL staining of tumor slices (subcutaneous U87MG tumor) | effect of light irradiation on tumor growth, light group compared to dark group (subcutaneous U87MG tumor; n = 5) | Ru content, Heart [2, 3] [%ID/g] | Ru content, Kidney [2, 3] [%ID/g] | Ru content, Liver [2, 3] [%ID/g] | Ru content, Lung [2, 3] [%ID/g] | Ru content, Spleen [2, 3] [%ID/g] | Ru content, Tumor [2, 3] [%ID/g] | Ru content, Heart [2, 4] [%ID/g] | Ru content, Kidney [2, 4] [%ID/g] | Ru content, Liver [2, 4] [%ID/g] | Ru content, Lung [2, 4] [%ID/g] | Ru content, Spleen [2, 4] [%ID/g] | Ru content, Tumor [2, 4] [%ID/g] | Ru content, Heart [2, 5] [%ID/g] | Ru content, Kidney [2, 5] [%ID/g] | Ru content, Liver [2, 5] [%ID/g] | Ru content, Lung [2, 5] [%ID/g] | Ru content, Spleen [2, 5] [%ID/g] | Ru content, Tumor [2, 5] [%ID/g] | further results
CSCc1ccccn1.[Cl-].[Cl-].[Ru+2].c1ccc(-c2ccnc3c2ccc2c(-c4ccccc4)ccnc23)cc1.c1ccc(-c2ccnc3c2ccc2c(-c4ccccc4)ccnc23)cc1 [[2]Cl2, rac-[Ru(Ph2phen)2(mtmp)]Cl2, reference compound] | induced outstanding apoptosis of tumor cells | statistically nonsignificant | 2.0 ± 0.3 | 3.2 ± 0.4 | 40.5 ± 3.3 | 1.5 ± 0.3 | 4.6 ± 0.4 | 1.8 ± 0.3 | 1.9 ± 0.5 | 2.0 ± 0.4 | 29.5 ± 1.9 | 1.6 ± 0.2 | 2.2 ± 0.5 | 6.5 ± 0.5 | 1.8 ± 0.3 | 1.7 ± 0.2 | 16.3 ± 3.3 | 1.7 ± 0.2 | 2.2 ± 0.3 | 12.3 ± 1.5 | nanoparticle formation (DLS) [1]: not; Ru content, Heart [2, 6]: 1.7 ± 0.2 %ID/g; Ru content, Kidney [2, 6]: 1.9 ± 0.2 %ID/g; Ru content, Liver [2, 6]: 14.6 ± 2.3 %ID/g; Ru content, Lung [2, 6]: 1.7 ± 0.1 %ID/g; Ru content, Spleen [2, 6]: 1.6 ± 0.2 %ID/g; Ru content, Tumor [2, 6]: 2.8 ± 0.6 %ID/g; Ru content, Heart [2, 7]: 1.7 ± 0.2 %ID/g; Ru content, Kidney [2, 7]: 1.5 ± 0.1 %ID/g; Ru content, Liver [2, 7]: 7.3 ± 0.8 %ID/g; Ru content, Lung [2, 7]: 1.7 ± 0.1 %ID/g; Ru content, Spleen [2, 7]: 1.7 ± 0.2 %ID/g; Ru content, Tumor [2, 7]: 1.7 ± 0.1 %ID/g; PI (U87MG cells): 6; EC50 (U87MG cells): 300 nM
[Ru(Ph2phen)2(κ^S,κ^N-(Ac-MRGDH-NH2))]Cl2 (sidechain bridge or staple) [[1]Cl2, mixture of diastereoisomers used for the in vivo study] | induced outstanding apoptosis of tumor cells | much stronger tumor growth suppression | 2.2 ± 0.4 | 3.2 ± 0.3 | 40.2 ± 2.8 | 1.5 ± 0.2 | 1.9 ± 0.1 | 2.0 ± 0.5 | 1.8 ± 0.3 | 2.0 ± 0.2 | 29.0 ± 1.6 | 1.6 ± 0.2 | 2.1 ± 0.5 | 7.3 ± 0.4 | 1.8 ± 0.2 | 1.7 ± 0.3 | 16.5 ± 3.5 | 1.6 ± 0.2 | 2.2 ± 0.4 | 15.7 ± 1.3 | antitumor efficiency compared to [2]Cl2 + light (subcutaneous U87MG tumor; single i.v. dose 7.7 mg/kg + 520 nm laser 60 J/cm^2 at DLI 12 h, 15 days, n = 5): better antitumor efficiency; amount of ruthenium in the tumor higher than for the group treated with [2]Cl2 ([2]; 12 h after i.v. injection, same molar dose, P < 0.01): 28%; Ru content, Heart [2, 6]: 1.9 ± 0.2 %ID/g; Ru content, Kidney [2, 6]: 1.9 ± 0.2 %ID/g; Ru content, Liver [2, 6]: 14.4 ± 4.3 %ID/g; Ru content, Lung [2, 6]: 1.8 ± 0.3 %ID/g; Ru content, Spleen [2, 6]: 1.9 ± 0.3 %ID/g; Ru content, Tumor [2, 6]: 7.2 ± 0.5 %ID/g; Ru content, Heart [2, 7]: 1.8 ± 0.1 %ID/g; Ru content, Kidney [2, 7]: 1.8 ± 0.2 %ID/g; Ru content, Liver [2, 7]: 6.1 ± 1.2 %ID/g; Ru content, Lung [2, 7]: 1.7 ± 0.2 %ID/g; Ru content, Spleen [2, 7]: 1.7 ± 0.2 %ID/g; Ru content, Tumor [2, 7]: 4.1 ± 1.0 %ID/g; PI (U87MG cells): 16; EC50 (U87MG cells): 2400 nM
